The values that follow come from patent US20160031909A1, “PORPHYRAZINE OPTICAL AND DUAL OPTICAL/ MR CONTRAST AND THERAPEUTIC AGENTS” (HOFFMAN/BARRETT, LLC, priority 2013, published 2016).

The term log P denotes a log measure of how a compound divides between an organic and an aqueous phase. The low end stands for lower lipophilicity, the high end for higher lipophilicity.

“Also recorded” adds a separate entry of the source. Where two headings read alike, the source gives them in different places.

Data set [1] can be described thus: Octanol-water partition coefficients by ICP-MS. Type of data set: physicochemical. To be noted: 1:1 water:1-octanol, 48 hours, Gd by ICP-MS. How it is done:
Octanol-water partition coefficients (log P) were measured by ICP-MS to determine the hydrophilicity of the Pz-Gd(III) conjugates (4d, 18). The hydrophilicity of a molecule dictates cellular permeability where a balance in amphiphilicity is desired for ease of aqueous administration and maximum cellular uptake (19). Cu-Pz-Gd(III) is slightly more hydrophobic than Zn-Pz-Gd(III) and both conjugates are more hydrophobic than DOTA-Gd(III).
DOTA-Gd(I I I), Zn-Pz-Gd(III), and Cu-Pz-Gd(III) (0.5 mg) were dissolved in 1 mL of a 1:1 mixture of water:1-octanol, respectively. After shaking for 30 seconds, these tubes were placed on a rotator for gentle mixing to equilibrate for 48 hours. Gd(III) concentration in each layer was determined by ICP-MS. Partition coefficients were calculated from the equation log P=log(Co/Cw), where log P is the logarithm of the partition coefficient, Co is the concentration of Gd in the 1-octanol layer, and Cw is the concentration of Gd in the water layer.

Data set [2] deals with MDA-MB-231 orthotopic breast tumor. Description: In vivo tumor MRI in orthotopic breast tumor model. On the set-up: species or system athymic nude mice. To be noted: 0-225 min after tail vein injection; Cu-Pz-Gd(III) 450 nmol (50 mg/kg), DOTA-Gd(III) 900 nmol (25 mg/kg). How it is done:
Cu-Pz-Gd(III) was examined as a contrast agent in vivo in an orthotopic breast tumor model in athymic nude mice. MDA-MB-231 breast tumor cells expressing mCherry fluorescent protein were implanted in the mammary fat pad of mice and tumors were allowed to grow to about 5 mm in diameter at which time mice were treated with 450 nmol (50 mg/kg) Cu-Pz-Gd(III) together with saline treated control mice (FIG. 3A).
In a separate experiment focusing only on short time points (0-225 min), groups of mice (n=3) were treated with Cu-Pz-Gd(III) (450 nmol, 50 mg/kg), DOTA-Gd(I I I) (900 nmol, 25 mg/kg), and saline as a negative control (FIG. 4). Mice were imaged continuously after tail vein injections. […] Regions of interest (ROIs) were defined outside the periphery of tumors, at the inner rim, and at the center.
MDA-MB-231 cells (1×10^6) expressing mCherry fluorescent protein were inoculated subcutaneously (1:1 v/v matrigel:PBS) on the right mammary fat pad. Cells were maintained in DMEM media supplemented with 10% FBS prior to inoculation. The athymic nude mice, Crl:NU(NCr)-Foxnl^nm, were purchased from Charles River, Portage at 5-6 weeks old and 16-18 gram were allowed to acclimate for 5 days. One week post inoculation, each animal was screened for mCherry fluorescence wavelength using the IVIS small animal fluorescence imaging system to verify presence of the tumor.
Mice were anesthetized in an induction chamber with 3% inhaled isoflurane in oxygen, then transferred to an imaging bed with circulating warm water heating system, MRI compatible respiratory monitoring (SA Instruments, Stony Brook, N.Y.) and 1-2% isoflurane delivered via nosecone to maintain a surgical plane of anesthesia with respiratory rate at 90-100 breaths/min Mice were imaged prone with the tumor centered in a 40 mm diameter quadrature volume coil (Bruker Biospec, Billerica, Mass.). An AutoPac automated positioning system was used to reproducibly center the animals in the MRI system.
Mice were positioned in the MRI scanner as described above and localizer images were acquired. T1 maps were acquired using a FAIR-RARE non-selective inversion recovery sequence with static TR (18,000 ms) and TE (6.1 ms), and variable TI (30.5, 100, 200, 300, 500, 600, 700, 800, 900, 1000, 1100, 1200, 1300, 1400, 1600, 2000, 2500, 3000, 3500, 4000, 4500, 5000, and 6000 ms). Imaging parameters were as follows: field of view (FOV)=40×20 mm^2, matrix size(MTX)=512×133 pixels, number of slices=1, slice thickness=1.0 mm, and 1 average (total scan time=5 m 26 s).
Images were acquired at baseline, and 4, 24, and 48 hours after injection of 150 μL of imaging agent via the tail vein. One control animal was injected with saline; the remaining 9 animals were injected with 450 nmol Cu-Pz-Gd(III). Three animals were sacrificed after 4 hour, 24 hour, and 48 hour timepoints, respectively; the organs were collected for ICP-MS (described below) to measure biodistribution.
Mice were positioned in the MRI scanner as described above and localizer images were acquired. To improve signal to noise ratio, reduce respiratory artifacts, and increase tumor coverage, for this study we used a multi slice T1 map acquired using a variable repetition time saturation recovery sequence (RARE-VTR) with static TE (8.2 ms) and variable TR (175, 300, 600, 800, 1200, 2000, 4000 ms). Imaging parameters were as follows: FOV=10×7.5 mm, MTX=80×60, number of axial slices=5, slice thickness=1.0 mm, and 1 average (total scan time=6 min 48 sec). […]

For data set [3] the following is noted: monomeric DOTA-Gd(III), shown for comparison (ref 17), cited from earlier work.
The nature of data set [4]: Relaxation time measurements (longitudinal relaxivity r1). It counts as physicochemical. Particulars: water, 1.41 T (60 MHz), 37° C. The source says: The efficiency of a contrast agent in reducing the longitudinal relaxation time of water protons is defined in terms as relaxivity (mM^−1 s^−1) (14). It has been predicted by Solomon-Bloembergen-Morgan theory that a slow molecule tumbling of an MRI agent causes an increase in rotational correlation time, Tr, which in turn results in increase in relaxivity (14, 15). A common approach to increase relaxivity by slowing down the molecular tumbling is to attach Gd(III) complexes to a macromolecule through rigid linkages (12,16). The relaxivity of the monomeric DOTA-Gd(III) (DOTA is 1,4,7,10-tetraazacyclododecane-N,N,N″,N″-tetraacetic acid) used in the clinic is shown for comparison (17). […] Both the Zn-Pz-Gd(III) and Cu-Pz-Gd(III) had higher longitudinal relaxivity than DOTAGd(III).
Solutions of M-Pz-Gd(III) (M=Zn, Cu) conjugates were dissolved in 500 μL of filtered, deionized H20 (18.2 MΩ·cm) for T1 acquisition. Relaxation times were measured on a Bruker mq60 NMRanalyzer equipped with Minispec v2.51 Rev.00/NT software (Bruker Biospin, Billerica, Mass., USA) operating at 1.41 T (60 MHz) and 37° C. T1 relaxation times were measured using an inversion recovery pulse sequence (T1—ir_mb) using the following parameters: 4 scans per point, 10 data points for fitting, mono-exponential curve fitting, phase cycling, 10 ms first pulse separation, and a recycle delay and final pulse separation≧5 T1. The gadolinium concentrations of each solution were determined using ICP-MS. The inverse of the longitudinal relaxation time (1/ T1, s^−1) was plotted against gadolinium concentration (mM) and fitted to a straight line with an R^2>0.99. The slope of the fitted line was recorded as the relaxivity, r1.

The nature of a further data set: Water solubility. It counts as physicochemical. How it is done:
The pz platform is diol pz 285, which was prepared and activated for nucleophilic substitution by arenesulfonylation to produce bis-tosylate pz 286 as previously described (13). Subsequent nucleophilic substitution of pz 286 with excess sodium azide gave diazide pz 288, which was suitable for conjugation via cycloaddition reactions with the alkyne-functionalized Gd595. (Scheme 1). The use of catalytic copper(II) sulfate in this conjugation reaction partially metallates the pz core. To address this issue, pz 288 either was metallated with ZnCl2 prior to reaction with the alkyne or a stoichiometric amount of the […] catalyst was used to ensure that the pz core was completely cuprated. Standard cycloaddition reaction conditions were subsequently used to conjugate metallated pz diazides with Gd595 to produce Zn-Pz-Gd(III) and Cu-Pz-Gd(III) conjugates, which were isolated by preparative HPLC in 52% and 57% isolated yields, respectively. Trace amounts of Zn-Pz-Gd(III) were transmetallated to Cu-Pz-Gd(III), but this small amount was removed during purification.

For the molecule `O=C([O-])CN1CCN(CC(=O)[O-])CCN(CC(=O)O)CCN(CC(=O)[O-])CC1.[Gd+3]` [DOTA-Gd(III), reference compound], the “log P” value in data set [1] is reported as −3.42. Also, the “tumor T1 over time” value in data set [2] is given as “dips transiently but returns quickly to baseline; also recorded: enters the tumor, but is cleared relatively rapidly; also recorded: initial decrease in tumor T1 followed by recovery of signal”. Also, the “Molecular r1” value in data set [3] (1 Gd(III)) is reported as 3.1 mM^−1 S^−1. Further, in data set [3], the “Ionic r1” value was 3.1 mM^−1 S^−1.

As for “Zn[Pz(C17H27N5O7Gd)2]. Pz=18,21-bis(2-(1H-1,2,3-triazole-4-yl) ethoxy)-tris-[1,4-dioxino[g,l,q](2R,3R)-2,3-dimethoxy-2,3-dimethyll 25H,27H-benzo[b]porphyrazine; C17H27N5O7Gd=N-methyl-2-aminoacetamide-4,7,10-tris(carboxymethyl)-1,4,7,10-tetraazacyclododecylgadolinium(III)) [Zn-Pz-Gd(III)]”, the “Ionic r1” value in data set [4] (per Gd(III)) was determined as 6.9 mM^−1 S^−1. Besides, in data set [4] (per molecule (2 Gd(III))), the “Molecular r1” value was 13.8 mM^−1 S^−1. The “log P” value in data set [1] is −3.13. Also, the water solubility entry in the data set “Water solubility” is “freely water soluble”.
